In this assay the target is T1, human M1 receptor (hCHRM1) (Homo sapiens, UniProt P11229).
T1 construct: expressed in transfected cells; host or cells: CHO-K1
T1 sequence (P11229 1-460): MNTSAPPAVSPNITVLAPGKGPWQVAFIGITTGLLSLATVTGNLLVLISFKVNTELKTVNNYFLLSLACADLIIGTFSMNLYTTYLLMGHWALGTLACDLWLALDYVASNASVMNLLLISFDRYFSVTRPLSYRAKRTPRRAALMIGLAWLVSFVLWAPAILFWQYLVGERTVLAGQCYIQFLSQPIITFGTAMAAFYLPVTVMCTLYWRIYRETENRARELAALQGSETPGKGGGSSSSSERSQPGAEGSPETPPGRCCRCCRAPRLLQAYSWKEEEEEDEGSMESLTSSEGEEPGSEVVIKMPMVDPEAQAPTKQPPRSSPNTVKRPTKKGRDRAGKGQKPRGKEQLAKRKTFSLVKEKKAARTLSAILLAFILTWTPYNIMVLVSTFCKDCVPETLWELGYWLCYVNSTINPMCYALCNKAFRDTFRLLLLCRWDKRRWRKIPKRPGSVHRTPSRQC
Description: Measurement of M1 receptor positive allosteric modulator (M1PAM) activity, calcium fluorescence (FLIPRtetra) in CHO-K1 cells in the presence of acetylcholine at EC20. The class given is cell-based. The following applies: in the presence of acetylcholine at EC20 (final 0.6 nM), CHO-K1 cells expressing hCHRM1; for EC50: inflection point of M1PAM activity, read-out: IP value; for activity (%) at 10 μM: test compound 10 μM. A digest of the protocol: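 PAM activity was measured as calcium flux by FLIPRtetra over 1 min after co-addition of compound and EC20 acetylcholine (final 0.6 nM) to Fluo-4-loaded hCHRM1 CHO-K1 cells. The response was scaled between DMSO (0%) and 1 μM acetylcholine (100%), and the inflection point of the concentration curve gives the IP value.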

As to `Cn1cc(-c2ccc(CN3Cc4ccnc(OCc5ccccc5F)c4C3=O)cc2)nn1` [Example 332, 4-((2-fluorobenzyl)oxy)-2-(4-(1-methyl-1H-1,2,3-triazol-4-yl)benzyl)-1,2-dihydro-3H-pyrrolo[3,4-c]pyridin-3-one], the EC50 was determined as 17 nM and the “activity (%) at 10 μM” value is 106%.
Consider `O=C1c2c(ccnc2OCC2CCCO2)CN1Cc1ccc(-c2cc[nH]n2)cc1` (stereo not shown) [Example 333, 2-(4-(1H-pyrazol-3-yl)benzyl)-4-((tetrahydrofuran-2-yl)methoxy)-1,2-dihydro-3H-pyrrolo[3,4-c]pyridin-3-one], for which the EC50 was determined as 21 nM and the “activity (%) at 10 μM” value was found to be 114%.
Regarding `CC(Oc1nccc2c1C(=O)N(Cc1ccc(-c3cn(C)nn3)cc1F)C2)c1ccccc1F` (stereo not shown) [Example 334, 2-(2-fluoro-4-(1-methyl-1H-1,2,3-triazol-4-yl)benzyl)-4-(1-(2-fluorophenyl)ethoxy)-1,2-dihydro-3H-pyrrolo[3,4-c]pyridin-3-one], the EC50 amounted to 65 nM and the “activity (%) at 10 μM” value is recorded as 99%.
`Cn1cc(-c2ccc(CN3Cc4ccnc(OC5CCC5)c4C3=O)cc2)nn1` [Example 335, 4-(cyclobutyloxy)-2-(4-(1-methyl-1H-1,2,3-triazol-4-yl)benzyl)-1,2-dihydro-3H-pyrrolo[3,4-c]pyridin-3-one]: the EC50 turned out to be 57 nM and the “activity (%) at 10 μM” value is given as 98%.
Regarding `Cn1cc(-c2ccc(CN3Cc4ccnc(OCc5ccc(F)cc5F)c4C3=O)cc2)nn1` [Example 336, 4-((2,4-difluorobenzyl)oxy)-2-(4-(1-methyl-1H-1,2,3-triazol-4-yl)benzyl)-1,2-dihydro-3H-pyrrolo[3,4-c]pyridin-3-one], the EC50 is 22 nM and the “activity (%) at 10 μM” value stood at 106%.
In the case of `Cn1cc(-c2ccc(CN3Cc4ccnc(OCC5CC5)c4C3=O)cc2)nn1` [Example 337, 4-(cyclopropylmethoxy)-2-(4-(1-methyl-1H-1,2,3-triazol-4-yl)benzyl)-1,2-dihydro-3H-pyrrolo[3,4-c]pyridin-3-one], the EC50 came to 49 nM and the “activity (%) at 10 μM” value worked out at 92%.
On the same counts, the results for `Cn1cc(-c2ccc(CN3Cc4ccnc(OC5CCC5)c4C3=O)c(F)c2)nn1` [Example 338, 4-(cyclobutyloxy)-2-(2-fluoro-4-(1-methyl-1H-1,2,3-triazol-4-yl)benzyl)-1,2-dihydro-3H-pyrrolo[3,4-c]pyridin-3-one] are 19 nM and 98%.
For the compound `Cc1cc(-c2ccc(CN3Cc4ccnc(OCC5CC5)c4C3=O)cc2)ccn1` [Example 339, 4-(cyclopropylmethoxy)-2-(4-(2-methylpyridin-4-yl)benzyl)-1,2-dihydro-3H-pyrrolo[3,4-c]pyridin-3-one], the EC50 is 70 nM and the “activity (%) at 10 μM” value was determined as 106%.
Turning to `Cn1cc(-c2ccc(CN3Cc4ncnc(OCc5ccc(F)cc5F)c4C3=O)cc2)nn1` [Example 340, 4-((2,4-difluorobenzyl)oxy)-6-(4-(1-methyl-1H-1,2,3-triazol-4-yl)benzyl)-6,7-dihydro-5H-pyrrolo[3,4-d]pyrimidin-5-one], the EC50 came out at 3.8 nM and the “activity (%) at 10 μM” value was 106%.
As for `Cc1nn(C)cc1-c1ccc(CN2Cc3ccnc(OCC4(C)CC4)c3C2=O)c(F)c1` [Example 341, 2-(4-(1,3-dimethyl-1H-pyrazol-4-yl)-2-fluorobenzyl)-4-((1-methylcyclopropyl)methoxy)-1,2-dihydro-3H-pyrrolo[3,4-c]pyridin-3-one], the EC50 was found to be 63 nM and the “activity (%) at 10 μM” value was 93%.
`Cn1ccc(-c2ccc(CN3Cc4ccnc(OCc5ccccc5F)c4C3=O)c(F)c2)n1` [Example 342, 4-((2-fluorobenzyl)oxy)-2-(2-fluoro-4-(1-methyl-1H-pyrazol-3-yl)benzyl)-1,2-dihydro-3H-pyrrolo[3,4-c]pyridin-3-one]: the EC50 was found to be 73 nM and the “activity (%) at 10 μM” value came out at 96%.
With `Cc1nn(C)cc1-c1ccc(CN2Cc3ccnc(OCc4ccccc4F)c3C2=O)c(F)c1` [Example 343, 2-(4-(1,3-dimethyl-1H-pyrazol-4-yl)-2-fluorobenzyl)-4-((2-fluorobenzyl)oxy)-1,2-dihydro-3H-pyrrolo[3,4-c]pyridin-3-one], the EC50 was found to be 29 nM and the “activity (%) at 10 μM” value came out at 94%.
On to `Cc1cc(-c2ccc(CN3Cc4ccnc(OCc5ccccc5F)c4C3=O)c(F)c2)cnn1` [Example 344, 4-((2-fluorobenzyl)oxy)-2-(2-fluoro-4-(6-methylpyridazin-4-yl)benzyl)-1,2-dihydro-3H-pyrrolo[3,4-c]pyridin-3-one], for which the EC50 is 55 nM and the “activity (%) at 10 μM” value came out at 97%.
Take `Cc1nn(C)cc1-c1ccc(CN2Cc3ccnc(OC4CCc5cccnc54)c3C2=O)c(F)c1` (stereo not shown) [Example 346, 4-(6,7-dihydro-5H-cyclopenta[b]pyridin-7-yloxy)-2-(4-(1,3-dimethyl-1H-pyrazol-4-yl)-2-fluorobenzyl)-1,2-dihydro-3H-pyrrolo[3,4-c]pyridin-3-one]: the EC50 was found to be 2.1 nM and the “activity (%) at 10 μM” value is 85%.
As to `Cc1nn(C)cc1-c1ccc(CN2Cc3ccnc(OCC(F)(F)c4ccccn4)c3C2=O)c(F)c1` [Example 347, 4-(2,2-difluoro-2-(pyridin-2-yl)ethoxy)-2-(4-(1,3-dimethyl-1H-pyrazol-4-yl)-2-fluorobenzyl)-1,2-dihydro-3H-pyrrolo[3,4-c]pyridin-3-one], the EC50 worked out at 10 nM and the “activity (%) at 10 μM” value was found to be 97%.
For the compound `Cn1cc(-c2ccc(CN3Cc4ccnc(OC5CCC5)c4C3=O)cc2)cn1` [Example 348, 4-(cyclobutyloxy)-2-(4-(1-methyl-1H-pyrazol-4-yl)benzyl)-1,2-dihydro-3H-pyrrolo[3,4-c]pyridin-3-one], the EC50 is 74 nM and the “activity (%) at 10 μM” value stood at 97%.
In the case of `Cn1cc(-c2ccc(CN3Cc4ccnc(OC5c6ncccc6CC5(C)C)c4C3=O)cc2)cn1` (stereo not shown) [Example 349, 4-((6,6-dimethyl-6,7-dihydro-5H-cyclopenta[b]pyridin-7-yl)oxy)-2-(4-(1-methyl-1H-pyrazol-4-yl)benzyl)-1,2-dihydro-3H-pyrrolo[3,4-c]pyridin-3-one], the EC50 stood at 12 nM and the “activity (%) at 10 μM” value is given as 104%.
`Cc1cc(-c2ccc(CN3Cc4cccc(OCC5CCCO5)c4C3=O)cc2)ccn1.Cl` (stereo not shown) [Example 353, 2-(4-(2-methylpyridin-4-yl)benzyl)-7-((tetrahydrofuran-2-yl)methoxy)isoindolin-1-one hydrochloride]: the EC50 stood at 46 nM and the “activity (%) at 10 μM” value worked out at 97%.
Regarding `Cc1nn(C)cc1-c1ccc(CN2Cc3cccc(OCC45CCC(CC4)O5)c3C2=O)cc1` [Example 354, 2-(4-(1,3-dimethyl-1H-pyrazol-4-yl)benzyl)-7-((7-oxabicyclo[2.2.1]hept-1-yl)methoxy)isoindolin-1-one], the EC50 stood at 270 nM and the “activity (%) at 10 μM” value turned out to be 93%.
`Cc1cc(-c2ccc(CN3Cc4cccc(OCC5CCCO5)c4C3=O)cc2)cnn1` (stereo not shown) [Example 356, 2-(4-(6-methylpyridazin-4-yl)benzyl)-7-((tetrahydrofuran-2-yl)methoxy)isoindolin-1-one]: the EC50 was 49 nM and the “activity (%) at 10 μM” value came out at 101%.
